Results as given in patent US5358950A, “Triazolopyrimidine derivatives which are angiotensin II receptor antagonists” (Laboratoires UPSA, priority 1991, dated 1994).

System: adrenal angiotensin II receptors
Assay: Displacement of radiolabelled ligand [^125 I]-SIAII specifically bound to rat adrenal angiotensin II receptors
Type: binding
Conditions: rat adrenal homogenate, 60 min at 25° C.
Procedure: The affinity of the products of the examples for angiotensin II receptors is assessed by a technique of displacement of a radiolabelled ligand specifically bound to the adrenal angiotensin II receptors in the rat.
An aliquot of a rat adrenal homogenate is incubated in the presence of a single concentration of [^125 I]-SIAII(Sar^1 Tyr^4, Ile^8 -angiotensin II) which is an angiotensin II receptor antagonist, and two concentrations of competitive agents ([…]) for 60 min at 25° C.
The reaction is stopped by adding buffer, followed by rapid filtration through glass-paper filters. The non-specific binding is determined in the presence of angiotensin II.
The results are expressed, for the concentrations tested, as a percentage displacement of the radiolabelled ligand specifically bound to the adrenal angiotensin II receptors.

Row | Compound | % displacement of the labelled ligand (1E-5M, 10 µM) | % displacement of the labelled ligand (1E-7M, 0.1 µM)
1 | CCCc1nc(CC)n2[nH]c(=O)nc2c1Cc1ccc(-c2ccccc2-c2nnn[nH]2)cc1 [Example 138, 7-n-Propyl-5-ethyl-8-{[2'-(5-tetrazolyl)-4-biphenylyl]methyl}-1,2,4-triazolo[1,5-c]pyrimidin-2(3H)-one] | 61% | 17%
2 | CCCc1nc(C)n2nc(C)nc2c1Cc1ccc(-c2ccccc2-c2nnn[nH]2)cc1 [Example 74, 7-n-Propyl-2,5-dimethyl-8-{[2'-(5-tetrazolyl)-4-biphenylyl}methyl]-1,2,4-triazolo[1,5-c]pyrimidine] | 69% | 54%
3 | CCCc1nc(C)n2c(=O)n(CCO)nc2c1Cc1ccc(-c2ccccc2-c2nnn[nH]2)cc1 [Example 25, 2-[7-n-Propyl-5-methyl-3-oxo-8-{[2'-(5-tetrazolyl)-4-biphenylyl]methyl}-2,3-dihydro-1,2,4-triazolo[4,3-c]pyrimidin-2-yl]ethanol] | 68% | 54%
4 | CCCCc1nc(C)n2[nH]c(=O)nc2c1Cc1ccc(-c2ccccc2-c2nnn[nH]2)cc1 [Example 112, 7-n-Butyl-5-methyl-8-{[2'(5-tetrazolyl)-4-biphenylyl]methyl}-1,2,4-triazolo[1,5-c]pyrimidin-2(3H)-one] | 60% | 41%
5 | CCCc1nc(C)n2nc(C(=O)OCC)nc2c1Cc1ccc(-c2ccccc2-c2nnn[nH]2)cc1 [Example 109, Ethyl 7-n-propyl-5-methyl-8-{[2'-(5-tetrazolyl)-4-biphenylyl]methyl}-1,2,4-triazolo[1,5-c]pyrimidine-2-carboxylate] | 67% | 46%
6 | CCCc1nc(C)n2nc(NC)nc2c1Cc1ccc(-c2ccccc2-c2nnn[nH]2)cc1 [Example 80, 7-n-Propyl-5-methyl-2-methylamino-8-{[2'-(5-tetrazolyl)-4-biphenylyl]methyl}-1,2,4-triazolo [1,5-c]pyrimidine] | 74% | 59%
7 | CCCc1nc(C)n2nc(S)nc2c1Cc1ccc(-c2ccccc2-c2nnn[nH]2)cc1 [Example 42, 7-n-propyl-5-methyl-2-mercapto-8-{[2'-(5-tetrazolyl)-4-biphenylyl]methyl}-1,2,4-triazolo[1,5-c]pyrimidine] | 75% | 46%
8 | CCCCc1nc(C)n2c(=O)[nH]nc2c1Cc1ccc(-c2ccccc2-c2nnn[nH]2)cc1 [Example 36, 7-n-Butyl-5-methyl-8-{[2'-(5-tetrazolyl)-4-biphenylyl]methyl}-1,2,4-triazolo[4,3-c]pyrimidin-3(2H)-one] | 65% | 43%
9 | CCCc1nc(C)n2nc(CC)nc2c1Cc1ccc(-c2ccccc2-c2nnn[nH]2)cc1 [Example 78, 7-n-Propyl-5-methyl-8-{[2 '(5-tetrazolyl)-4-biphenylyl]methyl}-2-ethyl-1,2,4-triazolo[1,5-c]pyrimidine] | 67% | 52%
10 | CCCc1nc(C)n2[nH]c(=O)nc2c1Cc1ccc(-c2ccccc2-c2nnn[nH]2)cc1 [Example 20, 7-n-Propyl-5-methyl-8-{[2'-(5-tetrazolyl)-4-biphenylyl]methyl}-1,2,4-triazolo[1,5-c]pyrimidin-2(3H)-one] | 60% | 45%
11 | CCc1nc(C)n2nc(C)nc2c1Cc1ccc(-c2ccccc2-c2nn[nH]n2)cc1 [Example 90, 7-Ethyl-2 , 5-dimethyl-8-{[2 '-(5-tetrazolyl)-4-biphenylyl]methyl}-i, 2,4-triazolo[1,5-c]pyrimidine] | 63% | 48%
12 | CCCc1nc(C)n2nc(CC(=O)OCC)nc2c1Cc1ccc(-c2ccccc2-c2nnn[nH]2)cc1 [Example 146, Ethyl [7-n-propyl-5-methyl-8-{[2'-(5-tetrazolyl)-4-biphenylyl]methyl}-1,2,4-triazolo[1,5-c]pyrimidin-2-yl]acetate] | 74% | 56%
13 | CCCc1nc(C)n2c(S)nnc2c1Cc1ccc(-c2ccccc2-c2nnn[nH]2)cc1 [Example 68, 7-n-Propyl-5-methyl-3-mercapto-8-{[2'-(5-tetrazolyl)-4-biphenylyl]methyl}-1,2,4-triazolo[4,3-c]pyrimidine] | 67% | 33%
14 | CCc1nc(C)n2[nH]c(=O)nc2c1Cc1ccc(-c2ccccc2-c2nnn[nH]2)cc1 [Example 97, 7-Ethyl-5-methyl-8-{[2'(5-tetrazolyl)-4-biphenylyl]methyl}-1,2,4-triazolo[1,5-c]pyrimidin-2(3H)-one] | 60% | 38%
15 | CCCc1nc(C)n2nc(COC)nc2c1Cc1ccc(-c2ccccc2-c2nnn[nH]2)cc1 [Example 152, 7-n-Propyl-5-methyl-2-methoxymethyl-8-{[2'-(5-tetrazolyl)-4-biphenylyl]methyl}-1,2,4-triazolo[1,5-c]pyrimidine] | 69% | 57%
16 | CCCc1nc(C)n2nc(N)nc2c1Cc1ccc(-c2ccccc2-c2nnn[nH]2)cc1 [Example 107, 7-n-Propyl-5-methyl-2-amino-8-{[2'-(5-tetrazolyl)-4-biphenylyl]methyl}-1,2,4-triazolo[1,5-c]pyrimidine] | 71% | 58%
17 | CCCc1nc(C)n2c(=O)[nH]nc2c1Cc1ccc(-c2ccccc2-c2nnn[nH]2)cc1 [Example 19, 7-n-Propyl-5-methyl-8-{[2'-(5-tetrazolyl)-4-biphenylyl]methyl}-1,2,4-triazolo[4,3-c]pyrimidin-3(2H)-one] | 66% | 48%
18 | CCCc1nc(C)n2ncnc2c1Cc1ccc(-c2ccccc2-c2nnn[nH]2)cc1 [Example 71, 7-n-propyl-5-methyl-8-{[2'-(5-tetrazolyl)-4-biphenylyl]methyl}-1,2,4-triazolo[1,5-c]pyrimidine] | 73% | 60%
